Values quoted from earlier work in patent US20060251786A1 (priority 2005, published 2006).

Settings: scale of 1-6; Gosselin et al., 5th ed, 1984

SMILES	toxicity level
CN1CCCC1c1cccnc1 (centres unmarked) [nicotine]	6
O=c1ccc2ccccc2o1 [coumarin, 1,2-benzopyrone]	4
